According to paper PMC2832019, “In Vitro Metabolic and Mitogenic Signaling of Insulin Glargine and Its Metabolites” (PLoS ONE, 2010):
Where two headings read alike, the source gives them in different places.

Tests used:
human IR-A [1] = test: Competitive receptor binding (SPA), IR-A; settings: for difference in affinity between IR-A and IR-B: IR-A vs IR-B, in words; for IC50: SPA, WGA PVT PEI beads, 2 µg membranes from CHO cells overexpressing IR-A, 100 pmol/L A14[^125I]-insulin, pH 7.8, 12 h, 23°C, means ± SEM, at least three times, read-out: IR-A affinity IC50; for IR-A binding, less active than human insulin: decrease relative to human insulin; for higher affinity for IR-A than IR-B: IR-A relative to IR-B
Method: (§1) The binding of the different insulins to the human IR-A and IR-B was analyzed in a competitive binding assay using the scintillation proximity assay as previously described, [30]. […] Briefly, cells were grown to confluence and gently detached, transferred to a centrifugation tube followed by centrifugation for 10 minutes at 600×g at 4°C. The pellet was resuspended in ice-cold 2.25 STM buffer (2.25 mol/L sucrose, 5 mmol/L Tris-HCl pH 7.4, 5 mmol/L MgCl2, 1x Complete Protease Inhibitor) and disrupted using a hand-held Dounce homogenizer followed by sonication. This homogenate was transferred to a centrifugation tube, overlaid with 0.8 STM buffer (0.8 mol/L sucrose, 5 mmol/L Tris-HCl pH 7.4, 5 mmol/L MgCl2, 1x Complete Protease Inhibitor) and centrifuged for 90 minutes at 100 000×g at 4°C. The emerging pellicle at the interface was collected, transferred to a new tube and washed two times with PBS by centrifugation for 10 minutes at 1500×g. The final pellet was resuspended in a small volume of dilution buffer (50 mmol/L Tris-HCl pH 7.4, 5 mmol/L MgCl2, 1x Complete Protease Inhibitor) and homogenized with a Dounce homogenizer. These plasma membrane preparations were stored until usage at –80°C.
(§2) Binding experiments were conducted in 96-well microplates. Per well 2 µg of membranes were incubated with 0.25 mg wheat germ agglutinin polyvinyltoluene polyethylenimine SPA beads, 100 pmol/L A14[^125I]-insulin and various concentrations of unlabeled insulins in a binding buffer containing 0.05 mol/L Tris-HCl pH 7.8, 0.15 mol/L NaCl, 0.1% BSA, Complete Protease Inhibitor for 12 hours at room temperature (23°C). The radioactivity was measured at equilibrium in a microplate scintillation counter (Wallac Microbeta, Freiburg, Germany).
(§3) For each experiment, IC50 or EC50 values were obtained using the 4-parameter logistic model according to Ratkowsky and Reedy (1986). The adjustment was obtained by non-linear regression using the Levenberg-Marquardt algorithm in SAS v9.1.3 software via Biost@t-Speed V2.0-LTS internal application. If necessary, lower and upper asymptotes were set to 0 and 100, respectively.
(§4) The binding of a constant concentration of [^125I]insulin to plasma membranes from CHO cells overexpressing either IR-A or IR-B was measured in presence of increasing concentrations of unlabeled competing ligand after incubation at room temperature for 12 h. All data has been corrected for non-specific binding and are expressed as percentage of [^125I]insulin in absence of competing ligand. To analyze the insulin-stimulated activation and subsequent autophosphorylation of the insulin receptor CHO cells overexpressing the human IR-A (C) or IR-B (D) were stimulated for 15 min at 37°C with increasing concentrations of peptides, then the cells were fixed with 3.7% PFA and the amount of phosphotyrosines was analyzed via In-Cell Western. The data represent mean values ± SEM of at least 3 individual experiments measured in quadruplicate.

human IR-B [2] = test: Competitive receptor binding (SPA), IR-B; settings: for IC50: SPA, WGA PVT PEI beads, 2 µg membranes from CHO cells overexpressing IR-B, 100 pmol/L A14[^125I]-insulin, pH 7.8, 12 h, 23°C, means ± SEM, at least three times, read-out: IR-B affinity IC50; for IR-B binding, less active than human insulin: decrease relative to human insulin
Method: as §1, §2, §3, §4

human IR-A [3] = test: IR-A autophosphorylation (In-Cell Western); type: cell-based; settings: for EC50: CHO cells overexpressing IR-A, 15 min at 37°C, In-Cell Western, means ± SEM, at least three times, read-out: IR-A auto-phosphorylation EC50
Text: (§5) CHO cells expressing either the IR-A or the IR-B isoform were used for IR autophosphorylation assays using In-Cell Western. For the analysis of IGF1R autophosphorylation the receptor was overexpressed in a mouse embryo fibroblast 3T3 Tet off cell line (BD Bioscience, Heidelberg, Germany) that was stably transfected with IGF1R tetracycline-regulatable expression plasmid resulting in the expression of ∼2.6×10^5 IGF1R per cell (as determined by FACS analysis, unpublished data). In order to determine the receptor tyrosine phosphorylation level, cells were seeded into 96-well plates and grown for 48 h. Cells were serum starved with serum-free medium αMEM (PAN Biotech GmbH, Aidenbach, Germany) for 3–4 h. […] After incubation the medium was discarded and the cells were fixed in 3.75% freshly prepared para-formaldehyde for 20 min. Cells were permeabilized with 0.1% Triton-X-100 in PBS for 20 min. Blocking was performed with Odyssey blocking buffer (LI-COR, Bad Homburg, Germany) overnight at 4°C. Anti-pTyr 4G10 (Millipore, Schwalbach, Germany) was incubated for 2 h at room temperature. After incubation of the primary antibody, cells were washed with PBS+0.1% Tween20. The secondary anti-mouse-IgG-800-CW antibody (Rockland, Gilbertsville, PA, USA) was incubated for 1 h. Results were normalized by the quantification of DNA with TO-PRO3 dye (Invitrogen, Karlsruhe, Germany). Data were obtained as relative units (RU) and are presented as fold over basal.
as §3, §4
(§6) Insulin receptor autophosphorylation was studied using CHO cells overexpressing either IR-A or IR-B. For detection an immunocytochemical microplate assay (In-Cell Western) based on two-colour fluorescence was applied.

human IR-B [4] = test: IR-B autophosphorylation (In-Cell Western); type: cell-based; settings: for EC50: CHO cells overexpressing IR-B, 15 min at 37°C, In-Cell Western, means ± SEM, at least three times, read-out: IR-B auto-phosphorylation EC50
Text: as §5, §3, §4, §6

human IGF1R = test: IGF1R autophosphorylation (In-Cell Western); type: cell-based; settings: for EC50: MEF cells overexpressing IGF1R, 15 min at 37°C, In-Cell Western, means ± SEM, at least three times, read-out: IGF1R auto-phosphorylation EC50; for more potent in stimulation of IGF1R autophosphorylation: relative to human insulin
Text: as §5, §3
Figure 4 Activity of insulin analogs on the human IGF1R and mitogenic potential in Saos-2 cells. Analysis of binding to the human IGF1R using [^125I]IGF-1 as radioactive ligand (A) and analysis of the insulin-stimulated autophosphorylation of the human IGF1R overexpressed in MEF cells (B) were done as described in figure 2 and Materials and Methods. Data are given as means ± SEM. […] Confluent cells were starved for 4 h and then incubated for 19 h with increasing concentrations of IGF-1, insulin or analog in serum free medium. [^14C]thymidine was added for further 6 h and the radioactivity measured in a Wallac Micro Scintillation counter. Data are given as means ± SEM from octuplicate sample.

insulin receptor = settings: cited from earlier work
Text: Accordingly, a good correlation between the potency in insulin receptor binding, induction of autophosphorylation and stimulation of lipid synthesis has been observed for insulin analogs. […] Taken together ...

[5] = in vivo; cited from earlier work
[6] = relative to human insulin, ref [12]

IC50 (human IR-A [1]) [nM] | IC50 (human IR-B [2]) [nM] | EC50 (human IR-A [3]) [nM] | EC50 (human IR-B [4]) [nM] | EC50 (human IGF1R) [nM] | Substance | difference in affinity between IR-A and IR-B (human IR-A [1]) | IR-A binding, less active than human insulin (human IR-A [1]) | IR-B binding, less active than human insulin (human IR-B [2]) | more potent in stimulation of IGF1R autophosphorylation (human IGF1R) | plasma levels of metabolites [5] | other results
0.78 ± 0.03 | 1.08 ± 0.06 | 23.1 ± 2.7 | 20.9 ± 1.3 | 179 ± 19.6 | [Gly^A21,Arg^B31]insulin [Glargine IM] | no difference | 40–50% | 40–50% | 2 fold | minor species only | 
 |  | 11 ± 1.3 | 11.7 ± 1.4 | 447 ± 38.7 | Human insulin: human insulin produced by recombinant DNA techniques or enzymatic semisynthesis |  |  |  |  |  | 
64.5 ± 5.1 | 171 ± 50 | 449 ± 61.7 | > 1000 | 2.9 ± 0.4 | IGF-1: IGF-1 obtained from R&D Systems and Cell Sciences |  |  |  |  |  | higher affinity for IR-A than IR-B (human IR-A [1]): 2.7 fold; IR-A affinity less potent than human insulin (human IR-A [1]; IR-A, relative to human insulin): approximately 130 fold; IR-B affinity less potent than human insulin (human IR-B [2]; IR-B, relative to human insulin): ~300 fold
0.93 ± 0.16 | 1.09 ± 0.06 | 19.2 ± 1.6 | 21.4 ± 2.3 | 485 ± 43.6 | [Gly^A21,des-Thr^B30]insulin [Glargine M2] | no difference | 40–50% | 40–50% |  | significant plasma levels | EC50 (human IGF1R; listed as M2): > 400 nM
0.06 ± 0.01 | 0.21 ± 0.03 | 5.1 ± 0.7 | 3.32 ± 0.78 | 72.7 ± 7.6 | [Asp^B10]insulin |  |  |  | about 5 fold |  | higher affinity for IR-A than IR-B (human IR-A [1]): 3.5 fold; IR-A binding, more potent relative to human insulin (human IR-A [1]; relative to human insulin): 8.2 fold; IR-B binding, more potent relative to human insulin (human IR-B [2]; relative to human insulin): 2.7 fold; less potent relative to IGF-1 (IGF1R autophosphorylation) (human IGF1R): ~25 times; affinity towards IR and IGF1R (insulin receptor; IR and IGF1R, relative to human insulin, ref [12]): higher affinity towards both IR and IGF1R; occupancy time for the IR (insulin receptor; ref [12]): prolonged occupancy time; occupancy of receptor (insulin receptor; ref [50]): prolonged occupancy

Substance | IC50 (human IR-A [1]) [nM] | IC50 (human IR-B [2]) [nM] | EC50 (human IR-A [3]) [nM] | EC50 (human IR-B [4]) [nM] | EC50 (human IGF1R) [nM] | difference in affinity between IR-A and IR-B (human IR-A [1]) | IR-A binding, less active than human insulin (human IR-A [1]) | IR-B binding, less active than human insulin (human IR-B [2]) | more potent in stimulation of IGF1R autophosphorylation (human IGF1R) | plasma levels of metabolites [5] | other results
[Gly^A21,Arg^B31,Arg^B32]insulin [Glargine] | 0.83 ± 0.08 | 1.1 ± 0.12 | 18.4 ± 2.4 | 23.6 ± 2.1 | 87.5 ± 10 | no difference | 40–50% | 40–50% | about 5 fold |  | decrease in IR-A autophosphorylation activity (human IR-A [3]; relative to human insulin): 30–50%; decrease in IR-B autophosphorylation activity (human IR-B [4]; relative to human insulin): 30–50%; less potent relative to IGF-1 (IGF1R autophosphorylation) (human IGF1R): ~30 times; dissociation rate (insulin receptor; relative to human insulin, ref [12], [51]): dissociation rate similar to that of human insulin; insulin receptor binding relative to human insulin (insulin receptor; [6]): 86%
[Gly^A21]insulin [Glargine M1] | 1.02 ± 0.03 | 1.35 ± 0.2 | 18.6 ± 2.5 | 18.1 ± 1.7 | 644 ± 56.9 | no difference | 40–50% | 40–50% |  | significant plasma levels | EC50 (human IGF1R; listed as M1): > 400 nM; insulin receptor binding relative to human insulin (insulin receptor; [6]): 78%
